Calls of active or inactive are those of the source. The rule behind the calls is not given here.
Assays:
[1] = species on record: Danio rerio; assay: Toxicity against zebrafish embryo assessed as effect on heart beat at 10 ug/ml measured at 96 hrs post fertilization by inverted microscopic analysis; assay type: organism-based; conditions: in vivo
[2] = species on record: Danio rerio; assay: Toxicity against zebrafish embryo assessed as effect on eyes at 5 ug/ml measured at 96 hrs post fertilization by inverted microscopic analysis; assay type: organism-based; conditions: in vivo
[3] = system: Trichophyton mentagrophytes; assay: Antifungal activity against Trichophyton mentagrophytes DMT4 by broth dilution method; assay type: functional
[4] = system: Candida albicans; assay: Antifungal activity against Candida albicans CA5 by broth dilution method; assay type: functional
[5] = system: Candida albicans; assay: Antifungal activity against Candida albicans CA5 assessed as fungal growth at sub-MIC measured after 24 hrs by time-kill dependence-based spectrophotometric analysis relative to DMSO control; assay type: functional, organism-based
[6] = species on record: Danio rerio; assay: Toxicity against zebrafish embryo assessed as effect on eyes at 10 ug/ml measured at 96 hrs post fertilization by inverted microscopic analysis; assay type: organism-based; conditions: in vivo
[7] = system: Danio rerio; assay: Toxicity against zebrafish embryo assessed as pericardial edema at 2.5 ug/ml measured at 96 hrs post fertilization by inverted microscopic analysis; assay type: organism-based; conditions: in vivo
[8] = system: Danio rerio; assay: Toxicity against zebrafish embryo assessed as yolk edema at 5 ug/ml measured at 96 hrs post fertilization by inverted microscopic analysis; assay type: organism-based; conditions: in vivo
[9] = species on record: Danio rerio; assay: Toxicity against zebrafish embryo assessed as effect on blood circulation at 2.5 ug/ml measured at 96 hrs post fertilization by inverted microscopic analysis; assay type: organism-based; conditions: in vivo
[10] = species on record: Danio rerio; assay: Toxicity against zebrafish embryo assessed as effect on heart beat at 5 ug/ml measured at 96 hrs post fertilization by inverted microscopic analysis; assay type: organism-based; conditions: in vivo
[11] = species on record: Danio rerio; assay: Toxicity against zebrafish embryo assessed as head malformation at 10 ug/ml measured at 96 hrs post fertilization by inverted microscopic analysis; assay type: organism-based; conditions: in vivo
[12] = species on record: Danio rerio; assay: Toxicity against zebrafish embryo assessed as teratogenic embryos at 2.5 ug/ml measured at 96 hrs post fertilization by inverted microscopic analysis; assay type: organism-based; conditions: in vivo
[13] = species on record: Danio rerio; assay: Toxicity against zebrafish embryo assessed as teratogenic embryos at 50 ug/ml measured at 96 hrs post fertilization by inverted microscopic analysis; assay type: organism-based; conditions: in vivo
[14] = system: Candida albicans; assay: Antibiofilm activity against Candida albicans assessed as inhibition of Spider medium-induced hyphae formation at sub-MIC after 24 hrs by propidium iodide and FITC-conjugated concanavaline A staining based fluorescence microscopy; assay type: functional, organism-based
[15] = species on record: Danio rerio; assay: Toxicity against zebrafish embryo assessed as skeletal deformities at 2.5 ug/ml measured at 96 hrs post fertilization by inverted microscopic analysis; assay type: organism-based; conditions: in vivo
[16] = system: Pichia kudriavzevii; assay: Antibiofilm activity against Pichia kudriavzevii ATCC 34135 assessed as disruption of preformed biofilm after 24 hrs by concanavalin A-FITC-staining based fluorescence microscopic analysis; assay type: functional
[17] = species on record: Danio rerio; assay: Toxicity against zebrafish embryo assessed as effect on blood circulation at 10 ug/ml measured at 96 hrs post fertilization by inverted microscopic analysis; assay type: organism-based; conditions: in vivo
[18] = species on record: Danio rerio; assay: Toxicity against zebrafish embryo assessed as normal embryos at 25 ug/ml measured at 96 hrs post fertilization by inverted microscopic analysis; assay type: organism-based; conditions: in vivo
[19] = species on record: Danio rerio; assay: Toxicity against zebrafish embryo assessed as effect on eyes at 2.5 ug/ml measured at 96 hrs post fertilization by inverted microscopic analysis; assay type: organism-based; conditions: in vivo
[20] = species on record: Danio rerio; assay: Toxicity against zebrafish embryo assessed as effect on notochord at 10 ug/ml measured at 96 hrs post fertilization by inverted microscopic analysis; assay type: organism-based; conditions: in vivo
[21] = species on record: Danio rerio; assay: Toxicity against zebrafish embryo assessed as effect on notochord at 5 ug/ml measured at 96 hrs post fertilization by inverted microscopic analysis; assay type: organism-based; conditions: in vivo
[22] = species on record: Danio rerio; assay: Toxicity against zebrafish embryo assessed as teratogenic embryos at 25 ug/ml measured at 96 hrs post fertilization by inverted microscopic analysis; assay type: organism-based; conditions: in vivo
[23] = system: Fusarium oxysporum; assay: Antifungal activity against Fusarium oxysporum AB18 by broth dilution method; assay type: functional
[24] = species on record: Danio rerio; assay: Toxicity against zebrafish embryo assessed as growth retardation at 10 ug/ml measured at 96 hrs post fertilization by inverted microscopic analysis; assay type: organism-based; conditions: in vivo
[25] = Toxicity against zebrafish embryo assessed as dead embryos at 2.5 ug/ml measured at 96 hrs post fertilization by inverted microscopic analysis; assay type: organism-based, Danio rerio; conditions: read-out: Activity
[26] = system: Candida albicans; assay: Antifungal activity against Candida albicans ATCC 10231 by broth dilution method; assay type: functional
[27] = system: Pichia kudriavzevii; assay: Antifungal activity against Candida krusei ATCC 34135 by broth dilution method; assay type: functional
[28] = species on record: Danio rerio; assay: Toxicity against zebrafish embryo assessed as effect on otoliths at 2.5 ug/ml measured at 96 hrs post fertilization by inverted microscopic analysis; assay type: organism-based; conditions: in vivo
[29] = Toxicity against zebrafish embryo assessed as dead embryos at 50 ug/ml measured at 96 hrs post fertilization by inverted microscopic analysis; assay type: organism-based, Danio rerio; conditions: read-out: Activity
[30] = Induction of membrane damage in PC/PS/E liposome assessed as calcein release at MIC after 30 mins by fluorescence-based liposome leakage assay; assay type: functional
[31] = species on record: Danio rerio; assay: Toxicity against zebrafish embryo assessed as normal embryos at 10 ug/ml measured at 96 hrs post fertilization by inverted microscopic analysis; assay type: organism-based; conditions: in vivo
[32] = system: Danio rerio; assay: Toxicity against zebrafish embryo assessed as pericardial edema at 5 ug/ml measured at 96 hrs post fertilization by inverted microscopic analysis; assay type: organism-based; conditions: in vivo
[33] = system: Danio rerio; assay: Toxicity against zebrafish embryo assessed as yolk edema at 2.5 ug/ml measured at 96 hrs post fertilization by inverted microscopic analysis; assay type: organism-based; conditions: in vivo
[34] = Toxicity against zebrafish embryo assessed as dead embryos at 10 ug/ml measured at 96 hrs post fertilization by inverted microscopic analysis; assay type: organism-based, Danio rerio; conditions: read-out: Activity
[35] = system: Candida albicans; assay: Induction of DNA intercalation with Candida albicans genomic DNA at 25 ug/ml after 12 hrs by ethidium bromide staining based gel electrophoresis method
[36] = Toxicity against zebrafish embryo assessed as dead embryos at 5 ug/ml measured at 96 hrs post fertilization by inverted microscopic analysis; assay type: organism-based, Danio rerio; conditions: read-out: Activity
[37] = Toxicity against zebrafish embryo assessed as dead embryos at 25 ug/ml measured at 96 hrs post fertilization by inverted microscopic analysis; assay type: organism-based, Danio rerio; conditions: read-out: Activity
[38] = species on record: Danio rerio; assay: Toxicity against zebrafish embryo assessed as normal embryos at 50 ug/ml measured at 96 hrs post fertilization by inverted microscopic analysis; assay type: organism-based; conditions: in vivo
[39] = species on record: Danio rerio; assay: Toxicity against zebrafish embryo assessed as skeletal deformities at 10 ug/ml measured at 96 hrs post fertilization by inverted microscopic analysis; assay type: organism-based; conditions: in vivo
[40] = species on record: Danio rerio; assay: Toxicity against zebrafish embryo assessed as skeletal deformities at 5 ug/ml measured at 96 hrs post fertilization by inverted microscopic analysis; assay type: organism-based; conditions: in vivo
[41] = species on record: Danio rerio; assay: Toxicity against zebrafish embryo assessed as unhatched embryos at 5 ug/ml measured at 96 hrs post fertilization by inverted microscopic analysis; assay type: organism-based; conditions: in vivo
[42] = system: MRC5; assay: Cytotoxicity against human MRC5 cells after 48 hrs by MTT assay; assay type: cell-based; conditions: MRC5, 48 h
[43] = species on record: Danio rerio; assay: Toxicity against zebrafish embryo assessed as effect on tail tip at 10 ug/ml measured at 96 hrs post fertilization by inverted microscopic analysis; assay type: organism-based; conditions: in vivo
[44] = species on record: Danio rerio; assay: Toxicity against zebrafish embryo assessed as normal embryos at 5 ug/ml measured at 96 hrs post fertilization by inverted microscopic analysis; assay type: organism-based; conditions: in vivo
[45] = Toxicity against zebrafish embryo measured at 96 hrs post fertilization by inverted microscopic analysis; assay type: organism-based, Danio rerio; conditions: zebrafish embryos
[46] = species on record: Danio rerio; assay: Toxicity against zebrafish embryo assessed as effect on tail tip at 5 ug/ml measured at 96 hrs post fertilization by inverted microscopic analysis; assay type: organism-based; conditions: in vivo
[47] = system: Aspergillus fumigatus; assay: Antifungal activity against Aspergillus fumigatus ATCC 13073 by broth dilution method; assay type: functional

## Cl.Cl.N=C(N)N/N=C/c1ccc(-c2ccc(/C=N/NC(=N)N)s2)cc1
[1]
  Activity: 0%
[2]
  Activity: 0%
[3]
  MIC: 3.9 µg/mL
[4]
  MIC: 0.5 µg/mL
[5]
  Activity: inactive
[6]
  Activity: 0%
[7]
  Activity: 0%
[8]
  Activity: 0%
[9]
  Activity: 0%
[10]
  Activity: 0%
[11]
  Activity: 0%
[12]
  Activity: 0%
[13]
  Activity: 0%
[14]
  Activity: Active
[15]
  Activity: 0%
[16]
  MBEC: 500 µg/mL
[17]
  Activity: 0%
[18]
  Activity: 96.67%
[19]
  Activity: 0%
[20]
  Activity: 0%
[21]
  Activity: 0%
[22]
  Activity: 0%
[23]
  MIC: > 250 µg/mL
[24]
  Activity: 0%
[25]
  mortality at 96 h, 2.5 ug/ml: 0%
[26]
  MIC: 3.9 µg/mL
[27]
  MIC: 25 µg/mL
[28]
  Activity: 0%
[29]
  mortality at 96 h, 50 ug/ml: 3.33%
[30]
  Activity: 7%
[31]
  Activity: 100%
[32]
  Activity: 0%
[33]
  Activity: 0%
[34]
  mortality at 96 h, 10 ug/ml: 0%
[35]
  Activity: Active
[36]
  mortality at 96 h, 5 ug/ml: 0%
[37]
  mortality at 96 h, 25 ug/ml: 3.33%
[38]
  Activity: 96.67%
[39]
  Activity: 0%
[40]
  Activity: 0%
[41]
  Activity: 0%
[42]
  IC50: 10 µg/mL
[43]
  Activity: 0%
[44]
  Activity: 100%
[45]
  LC50 at 96 h: > 50 µg/mL
[46]
  Activity: 0%
[47]
  MIC: 25 µg/mL
